The results in this text go back to patent US20240216407A1, “NOVEL POLYPHENOL COMPOUND” (NABOCUL COSMETICS CO., LTD., priority 2021, published 2024).

Structures are written as SMILES.

For this test, the system named is collagen gene (COL1A1 gene). Description: Promotion of collagen gene (COL1A1) mRNA expression in HaCaT cells, real-time PCR (QPCR). In kind it is cell-based, human. Particulars: for increase of the expression level of the collagen gene (COL1A1 mRNA) compared to the control: 24 hours culture. As for the experimental part: The OLANDU obtained in Example 2 was used to examine the effect of promoting the expression of collagen gene (COL1A1 gene) in a HaCaT cell that is a human epidermis-derived keratinocyte cell line.
First, the HaCaT cells were cultured in a DMEM medium (containing 10% FBS, 100 U/mL penicillin and […] streptomycin) in the presence of 5% CO2 at 37° C. and saturated humidity. Next, the HaCaT cells adjusted to a cell concentration of 5×10^5 cells/mL were seeded in each well of a 6-well cell culture plate and cultured in a CO2 incubator (5% CO2, 37° C.) for 24 hours. Thereafter, the OLANDU isolated in Example 2 was added to each well to provide a final concentration different from each other. Specifically, the final concentrations of OLANDU in the HaCaT cell culture medium were 1 μM, 5 μM, 10 μM, 50 μM and 100 μM, respectively. A well to which the OLANDU had not been added was used as a control (0 μM). After addition, they were subjected to culture for 24 hours.
After completion of the culture, the HaCaT cells were collected from each well, and total RNA was extracted with an RNA extraction reagent (RNAzol®, a product available from Molecular Research Center, Inc.). The concentration of total RNA obtained by extraction was confirmed with an ultratrace spectrophotometer (NanoDrop; a product available from Thermo Fisher Scientific). To this total RNA were added an oligo dT primer, a dNTP Mix, a 5×1st strand buffer, an RNase inhibitor, DTT and an M-MLV reverse transcriptase to synthesize cDNA from the total RNA. This cDNA was subjected to real-time PCR (QPCR) to measure the expression level of the collagen gene.
QPCR was performed with a commercially available QPCR reagent kit and QPCR measurement device (LightCycler® 480; a product available from Roche Diagnostics K. K.), and the detection was performed with SYBR® Green that is a double-stranded DNA-binding fluorescent dye. The COL1A1 gene encoding the α1 chain of type I collagen was selected as a target gene, and the primers of SEQ ID NOs: 1 and 2 shown in Table 1 below were used as QPCR primers. […]

Regarding `COc1ccc(/C=C/C(=O)OC[C@H]2O[C@H](OC(=O)c3cc(O)c(O)c(O)c3)[C@H](O)[C@@H](O)[C@@H]2O)cc1O` [OLANDU], the “increase of the expression level of the collagen gene (COL1A1 mRNA) compared to the control” value by setting is: (OLANDU 1 μM, control = 100) “approximately two-fold”; (OLANDU 10 μM, control = 100, highest expression-promoting action) “more than three-fold”. For the same compound, the “expression level of the collagen gene (COL1A1 mRNA) compared to the control without OLANDU” value (OLANDU 1, 5, 10, 50 and 100 μM, 24 hours culture (FIG. 11)) was “greatly increased the expression level of the collagen gene”.
